Source: patent US20080249131A1, “NON-NUCLEOSIDE REVERSE TRANSCRIPTASE INHIBITORS” (priority 2002, published 2008)
Read-outs that look alike come from different tables or passages of the source.

Legend:
[1] = system: human immunodeficiency virus type 1 (HIV-1); test: Inhibitory activity against HIV (EC50), cell-based luciferase reporter assay
Source text: […]. Experimental procedures were essentially as described by Connor et al. in Journal of Virology (1996), 70: 5306-5311 (Characterization of the functional properties of env genes from long-term survivors of human immunodeficiency virus type 1 infection), and Popik et al. in Journal of Virology (2002), 76: 4709-4722 (Human immunodeficiency virus type 1 uses lipid raft-colocalized CD4 and chemokine receptors for productive entry into CD4^+ T cells). It should be particularly appreciated that the virus contains two introduced mutations in the RT gene (K103N and Y181C, created by PCR mutagenesis) that render the virus highly resistant to current non-nucleoside HIV-1 drugs. Virus stocks were generated by cotransfection of plasmid DNA encoding VSV-G with vector pNL4-3Env(−)Luc(+) into 293T cells. Sixty-four hours after transfection, virus-containing medium was collected by centrifugation and stored frozen at −80° C.
HeLa cells were infected with the VSV-G pseudotyped virus in the presence of screening compounds in a 384-well microtiter plate format. Forty-eight hours after initial infection, lysis buffer and Luciferase Assay Reagent (Promega) was added to the cells and luciferase activity was determined by counting the resultant luminescence using a LJL luminometer. Since the luciferase gene is carried in the virus genome, its expression level directly reflects the virus replication level in the presence of a compound.
To evaluate the activity of the compounds against wild type HIV-1, the HeLa-JC53 cell line that expresses high levels of CD4 and CCR5 (see e.g., Platt et al. in Journal of Virology (1998), 72: 2855-2864: Effect of CCR5 and CD4 cell surface concentrations on infection by macrophagetropic isolates of human immunodeficiency virus type 1) was modified by isolation of a stable cell line that expresses luciferase under the control of the HIV-1 promoter (long terminal repeat, i.e., LTR). HIV-1 infection of this cell line stimulates the transcription of luciferase from the HIV-1 promoter and the luciferase gene expression level is proportional to the level of virus replication (Harrington et al. in Journal of Virology Methods (2000), 88: 111-115: Direct detection of infection of HIV-1 in blood using a centrifugation-indicator cell assay; and Roos et al. in Virology (2000), 273: 307-315: LuSIV cells: a reporter cell line for the detection and quantitation of a single cycle of HIV and SIV replication). Procedures for virus infection, compound testing and luciferase activity determination were the same as for the VSV-G pseudotyped HIV-1.

wild-type HIV RT = biological target: T1, wild-type HIV RT (Human immunodeficiency virus type 1 group M subtype B, UniProt P03366); test: IC50 for wild-type HIV RT; format: biochemical
T1 construct: IC50 is indicated in microM for wild-type HIV RT

[2] = Table 1, inhibitory activity against HIV, read-out: EC50

SMILES	EC50 [1, 2] [µM]	EC50 ([1]; Human immunodeficiency virus 1) [µM]	IC50 (wild-type HIV RT; Table 1) [µM]	IC50 (wild-type HIV RT; Table 1, numeric value) [µM]
Cc1nnc(SCC(=O)Nc2ccccc2)n1-c1ccccc1 [compound 49]	> 100			
Cc1ccc(NCc2nnc(SCC(=O)Nc3ccc(C)cc3Br)n2-c2ccccc2)cc1 [compound 33]		> 100	10 to 100	
CC(=O)c1ccc(NC(=O)CSc2nnc(C)n2-c2ccc(C)cc2)cc1 [compound 41]		> 100	10 to 100	
Cc1ccc(NC(=O)CSc2nnc(Cc3ccccc3)n2C)c(Br)c1 [compound 29]	> 100		10 to 100	
Cc1ccc(NC(=O)CSc2nnc(C)n2-c2ccccc2)cc1 [compound 47]	> 100			
Cc1ccc(NC(=O)CSc2nnc(COc3ccc(C#N)cc3)n2-c2ccccc2)c(Br)c1 [compound 44]		> 100	10 to 100	
Cc1ccc(NC(=O)C(C)Sc2nnc(C)n2-c2ccc(C)cc2)cc1 (stereo not drawn) [compound 45]	> 100			36.3
Cc1ccc(NC(=O)CSc2nnc(-c3ccccc3C)n2-c2ccccc2)c(Br)c1 [compound 52]		> 100	10 to 100	
Cc1cc(C)c(NC(=O)CSc2nnc(C)n2-c2ccccc2)c(C)c1 [compound 51]	> 100			
O=C(CSc1nnc(-c2ccncc2)n1-c1ccccc1)Nc1ccccc1I [compound 24]	> 100			
Cc1nnc(SCC(=O)Nc2ccccc2C(F)(F)F)n1-c1ccccc1Cl [compound 23]	> 100			
Cc1ccc(-c2nnc(SCC(=O)Nc3ccccc3Br)n2C)cc1 [compound 37]	> 100			
Cc1ccc(NC(=O)CSc2nnc(-c3ccncc3)n2-c2ccccc2Cl)c(Br)c1 [compound 46]		> 100	> 100	
Cc1cccc(NC(=O)CSc2nnc(C)n2-c2ccccc2)c1 [compound 40]	> 100		10 to 100	
Cc1ccc(-n2c(SCC(=O)Nc3ccc(C)cc3Br)nnc2-c2ccncc2)cc1 [compound 36]	> 100			
Cc1ccc(NC(=O)CSc2nnc(C)n2-c2ccccc2)cc1C [compound 30]	> 100			
Cn1c(SCC(=O)Nc2ccccc2)nnc1-c1ccc(Br)cc1 [compound 27]	> 100			
Cc1ccc(-n2c(C)nnc2SCC(=O)Nc2ccc(C)c(Cl)c2)cc1 [compound 39]	> 100			
O=C(CSc1nnc(C2CCCCC2)n1-c1ccccc1)Nc1ccccc1Br [compound 34]		> 100	10 to 100	
Cc1ccccc1NC(=O)CSc1nnc(-c2ccc(Cl)cc2)[nH]1 [compound 26]	10 to 100			
O=C(CSc1nnc(-c2ccc(Cl)cc2)n1-c1ccccc1)Nc1ccccn1 [compound 25]	> 100			
